“And” between values parts separate entries of the source, which are not always exact repeats. Equal values may be shown once.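 A five-concentration, 48-hour dose response in 96-well plates underlies each endpoint, interpolated linearly between surrounding concentrations. GI50 = concentration required for 50% inhibition of growth. TGI denotes the concentration required for complete inhibition of growth.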
Key:
Assay in all cases: NCI-60 cell line screen, 48 h
COLO 205 colon = system: COLO 205 colon
K-562 leukemia = system: K-562 leukemia
OVCAR-3 ovarian = system: OVCAR-3 ovarian
NCI-H226 lung = system: NCI-H226 lung
EKVX NSCLC = system: EKVX NSCLC
RPMI-8226 leukemia = system: RPMI-8226 leukemia
NCI-H460 lung = system: NCI-H460 lung
SN12C renal = system: SN12C renal
SK-OV-3 ovarian = system: SK-OV-3 ovarian
UO-31 renal = system: UO-31 renal

Row | SMILES | GI50 (COLO 205 colon) [µM] | TGI (COLO 205 colon) [µM] | GI50 (K-562 leukemia) [µM] | TGI (K-562 leukemia) | GI50 (OVCAR-3 ovarian) [µM] | TGI (OVCAR-3 ovarian) [µM] | GI50 (NCI-H226 lung) [µM] | TGI (NCI-H226 lung) [µM] | GI50 (EKVX NSCLC) [µM] | TGI (EKVX NSCLC) [µM] | GI50 (RPMI-8226 leukemia) [µM] | TGI (RPMI-8226 leukemia) | GI50 (NCI-H460 lung) [µM] | TGI (NCI-H460 lung) [µM] | GI50 (SN12C renal) [µM] | TGI (SN12C renal) [µM] | GI50 (SK-OV-3 ovarian) [µM] | TGI (SK-OV-3 ovarian) [µM] | GI50 (UO-31 renal) [µM] | TGI (UO-31 renal) [µM]
1 | O=C(O[C@H]1CN[C@H](C#Cc2cc3ncnc(Nc4ccc5c(ccn5Cc5cc(F)ccc5F)c4)c3s2)C1)N1CCOCC1 | 3.16 | 6.86 | 6.49 | > 25 µM | 2.86 | 6.55 | 3.2 | 9.64 | 0.119 | 2.04 | 4.65 | 13.7 µM | 5.17 | 14 | 2.57 | 12.8 | 0.0183 | 0.106 | 0.339 | 7.05
2 | Cc1ccccc1NC(=O)N/C(N)=N/c1nc(-c2cccc([N+](=O)[O-])c2)cs1 | 3.89 | > 100 | 0.555 | > 100 µM | 1.72 | 4.41 | 2.17 | 7.02 | 1.94 | > 100 | 3.09 | > 100 µM | 3.18 | 23.1 | 3.37 | 30.5 | 2.55 | 17.8 | 1.29 | 3.83
3 | COc1ccc([N+]2=NC(c3ccc([N+](=O)[O-])cc3)=NN(c3ccccc3)C2)cc1 |  | > 100 |  | 97.3 µM and > 100 µM |  | > 100 |  | > 100 |  | > 100 |  | 80 µM and > 100 µM |  | > 100 |  | > 100 |  |  |  | > 100
4 | NOCC(=O)O | > 100 | > 100 | > 100 | > 100 µM | > 100 | > 100 | > 100 | > 100 | > 100 | > 100 | 58 | > 100 µM | > 100 | > 100 | > 100 | > 100 | > 100 | > 100 | > 100 | > 100
5 | COc1ccc(NC(=O)C(=O)C(C(=O)c2ccccc2)C2OC(=O)c3ccccc32)c([N+](=O)[O-])c1 (centres undefined) |  | > 100 |  | > 100 µM |  |  |  | > 100 |  | > 100 |  | > 100 µM |  | > 100 |  | > 100 |  | > 100 |  | > 100
6 | O=C1c2ccccc2-c2c1c1ccccc1c(=O)n2CCCNCCCn1ccnc1 | 2.13 | 13.2 | 0.529 | 2.65 µM | 1.63 | 6.48 | 0.186 | 0.436 | 4.75 | 12.2 | 0.195 | 1.02 µM | 1.27 | 43.1 | 0.367 | 1.29 | 3.16 | 17.7 | 1.23 | > 100
7 | O=[N+]([O-])c1cc(Cl)c(Cl)c([N+](=O)[O-])c1Cl | 1.55 | 2.91 | 0.353 | > 100 µM | 1.69 | 3.07 | 2.61 | 7.16 | 2.23 | 5.32 | 0.422 | 2.61 µM | 3.3 | > 100 |  |  | 3.88 | 13.4 | 1.17 | 2.45
8 | O=C(Nc1cc(Cl)c(Cl)cc1Cl)C(=O)C1C=CCS1(=O)=O (centres undefined) |  | > 100 |  | > 100 µM |  | > 100 |  | > 100 |  | > 100 |  | > 100 µM |  | > 100 |  | > 100 |  | > 100 |  | > 100
9 | CC(=O)CC(=O)Nc1ccc2ccccc2c1 |  | > 100 |  | > 100 µM |  | > 100 |  | > 100 |  | > 100 |  | > 100 µM |  | > 100 |  | > 100 |  | > 100 |  | 
10 | Cc1cc(C)c([O-])c(CN(C)CCN(C)Cc2cc(C)cc(C)c2[O-])c1.O=C([O-])c1cccc(C(=O)[O-])n1.[Ti+4] | 2.4 | 5.01 | 2.67 | > 100 µM |  |  | 2.35 | > 100 | 3.4 | > 100 | 1.37 | 5.17 µM | 2.01 | > 100 | 3.69 | > 100 | 3.54 | > 100 | 2.26 | > 100
11 | COC(=O)c1s/c(=N\C(=S)N(C)C)n(-c2ccccc2)c1C(=O)OC |  | > 100 |  | > 100 µM |  | > 100 |  | > 100 |  | > 100 |  | > 100 µM |  | > 100 |  | > 100 |  | > 100 |  | > 100
12 | O=c1ccn(C2OC(CO)C(O)C2F)c(=O)[nH]1 (centres undefined) | > 1000 | > 1000 | > 1000 | > 1000 µM | > 1000 | > 1000 | > 1000 | > 1000 | > 1000 | > 1000 | > 1000 | > 1000 µM | > 1000 | > 1000 | > 1000 | > 1000 | > 1000 | > 1000 | > 1000 | > 1000
13 | Nc1c(C(=O)c2ccc(Cl)cc2)sc(Nc2ccccc2)c1-c1nc2ccccc2s1 |  |  | 3.1 | > 100 µM |  |  | 1.58 | > 100 | 2 | > 100 | 6.05 | > 100 µM | 0.776 | > 100 | > 20.2 | > 100 | 1.99 | 19 | 2.16 | > 100
14 | COC(=O)c1cc2c(cc1Cl)SC(N(N(C)C)S(=O)(=O)c1ccc(Br)s1)=NS2(=O)=O | 21.2 | 50.9 | 16.1 | 33.6 µM | 21.6 | 56.9 | 52.1 | > 100 | 25.3 | 61 | 25.4 | 74.1 µM | 22.4 | 43.9 | 30.5 | > 100 | 28 | 66.7 | 27.3 | 81.3
